# How the values were obtained:
# [1] = test system: proliferation of lymphocytes in the draining lymph nodes; assay: Local lymph node stimulation assay; type: in vivo, CBA/J female mice; settings: positive control
# Procedure: Compositions of Example 39 are subjected to a local lymph node stimulation assay in CBA/J female mice to determine if present compositions produce a hypersensitivity response as measured by the proliferation of lymphocytes in the draining lymph nodes. Ten groups of 5 mice each are used. Five groups are treated on the dorsal surface of both ears once per day for 3 days the compositions or with a positive control (35% hexylcinnamaldehyde (HCA)). On Day 6, the mice are injected intravenously (IV) with 20 μCi of ^3H-thymidine in sterile saline. Five hours later the mice are euthanized and the draining auricular lymph nodes are removed. […] A three-fold or greater increase in proliferative activity relative to the concurrent vehicle-treated control is considered a positive response. […] Since both of these stimulation indices are greater than 3, the positive controls indeed produced a positive response.
# [2] = Solubility of Drugs in single solvent alcohols; type: physicochemical
# Procedure: Briefly, the indicated NSAID was weighed and added to a beaker. To each beaker, incremental amounts of the indicated solvent was weighed and added. The beakers were sealed with aluminum foil and placed at room temperature or in a 35 C water bath for 20-30 minutes. They beakers were shaken frequently to mix the contents. After 20-30 minutes the solvent alcohols were examined. If a single phasic solution was not yet achieved, an additional aliquot of the solvent was added and the cycle was repeated until complete solvation had occurred.
# [3] = Super-solvent water effect (maximum water before NSAID precipitates); type: physicochemical
# Procedure: Methods. […] These amounts are chosen based upon the solubility of one gram of NSAID and the amount of the single solvent alcohol for saturation. Next, water was added in step-wise manner to determine the maximum amount that can be added before any visible amount of the NSAID precipitated (i.e., the volume of water that can be added and yet remain single phasic).
# [4] = Prodrug (ester) formation upon storage, HPLC; type: physicochemical; settings: for rate of prodrug generation: 2% propylene glycol, linear for at least the first 26 days
# Procedure: Next, the peak was characterized in terms of retention position, UV spectrum and mass spectroscopy response. In addition, isolates of the peak were collected from the chromatograph system employed for liquid chromatography-mass spectroscopy. […] The solution was centrifuged and the supernatant collected for analysis. Chromatography was conducted as follows: • Pumps: Hewlett Packard Model 1100 Binary Systems • Solvent A: Water • Solvent B: Acetonitrile • Gradient: […] Sequential detection was performed by UV absorbance using an HP diode array detector followed by ESI-MS […] using a Sciex O-Star/Pulsar quadrupole-TOF mass spectrometer operating in either the positive and negative ion modes. […] At acidic pH (e.g. […]), prodrug formation was relatively independent of Drug concentration. However, at pH 5, prodrug formation seemed to be first order (i.e. dependant upon the Drug concentration).
smiles,measurement,setting,value
"CCCCCC/C(C=O)=C\c1ccccc1 [HCA, hexylcinnamaldehyde]",stimulation index,[1]; 35% HCA in ISW-AP-01 placebo,4.6
same,stimulation index,[1]; 35% HCA in ethanol,4.4
CC(C)Cc1ccc(C(C)C(=O)O)cc1 (stereo not drawn) [Ibuprofen],Maximum Drug Concentration in single alcohol: EtOH,[2]; Solubility at 35 C,50.00
same,Maximum Drug Concentration in single alcohol: IPA,[2]; Solubility at 35 C,47.62
same,Maximum Drug Concentration in single alcohol: PEG,[2]; Solubility at 35 C,25.00
same,Maximum Drug Concentration in single alcohol: PG,[2]; Solubility at 35 C,20.00
same,Maximum Drug Concentration in single alcohol: EtOH,[2]; Solubility at Room Temperature,37.04
same,Maximum Drug Concentration in single alcohol: IPA,[2]; Solubility at Room Temperature,35.71
same,Maximum Drug Concentration in single alcohol: PEG,[2]; Solubility at Room Temperature,22.22
same,Maximum Drug Concentration in single alcohol: PG,[2]; Solubility at Room Temperature,15.38
same,Super-solvent Effect on water,"[3]; Ibuprofen 2 gm, EtOH 1 gm, IPA 1.1 gm",11.4%
same,Super-solvent Effect on water,"[3]; Ibuprofen 2 gm, PEG 3 gm, EtOH 1 gm",45.9%
same,Super-solvent Effect on water,"[3]; Ibuprofen 2 gm, PEG 3 gm, IPA 1.1 gm",55%
same,Super-solvent Effect on water,"[3]; Ibuprofen 2 gm, PG 4 gm, EtOH 1 gm",65.8%
same,Super-solvent Effect on water,"[3]; Ibuprofen 2 gm, PG 4 gm, IPA 1.1 gm",65.3%
same,Super-solvent Effect on water,"[3]; Ibuprofen 2 gm, PG 4 gm, PEG 3 gm",56%
same,Super-solvent Effect on water,"[3]; Ibuprofen 3 gm, PEG 3 gm, EtOH 1 gm, IPA 1.1 gm",40.4%
same,Super-solvent Effect on water,"[3]; Ibuprofen 3 gm, PG 4 gm, EtOH 1 gm, IPA 1.1 gm",63.2%
same,Super-solvent Effect on water,"[3]; Ibuprofen 3 gm, PG 4 gm, PEG 3 gm, EtOH 1 gm",57.5%
same,Super-solvent Effect on water,"[3]; Ibuprofen 3 gm, PG 4 gm, PEG 3 gm, IPA 1.1 gm",57.2%
same,prodrug generation upon storage (HPLC),"[4]; composition of 15% ibuprofen, about 60% ethanol, 3% glycerin, 2% propylene glycol stored for 3 months at 25 C","A new peak (i.e., the prodrug) distinct from the ibuprofen peak was detected"
same,effect of Drug concentration and pH on prodrug generation,[4]; compositions of ibuprofen with ethanol as solvent (FIG. 7),higher pH (e.g. 5.0) substantially decreases the rate of prodrug formation
same,rate of prodrug generation,"[4]; pH 3.7, composition of 15% ibuprofen, about 60% ethanol, 3% glycerin",approximately 0.05 % per day
same,rate of prodrug generation,"[4]; pH 5, composition of 15% ibuprofen, about 60% ethanol, 3% glycerin",about 0.025 % per day

# Source: patent US20130243707A1, “TOPICAL COMPOSITIONS” (priority 2006, published 2013)
